Laboratory results as given in patent US5849695A, “Parathyroid hormone analogues useful for treatment of osteoporosis and disorders of calcium meatabolism in mammals” (The Regents of the University of California, priority 1993, dated 1998).

What was measured:
PTH receptor [1] = target: T1, PTH receptor (Canis lupus familiaris, UniProt Q9TU31); assay type: binding, canine
T1 construct: canine renal plasma membranes; from tissue; host or cells: canine kidney (renal plasma membranes)
T1 sequence (Q9TU31 29-595): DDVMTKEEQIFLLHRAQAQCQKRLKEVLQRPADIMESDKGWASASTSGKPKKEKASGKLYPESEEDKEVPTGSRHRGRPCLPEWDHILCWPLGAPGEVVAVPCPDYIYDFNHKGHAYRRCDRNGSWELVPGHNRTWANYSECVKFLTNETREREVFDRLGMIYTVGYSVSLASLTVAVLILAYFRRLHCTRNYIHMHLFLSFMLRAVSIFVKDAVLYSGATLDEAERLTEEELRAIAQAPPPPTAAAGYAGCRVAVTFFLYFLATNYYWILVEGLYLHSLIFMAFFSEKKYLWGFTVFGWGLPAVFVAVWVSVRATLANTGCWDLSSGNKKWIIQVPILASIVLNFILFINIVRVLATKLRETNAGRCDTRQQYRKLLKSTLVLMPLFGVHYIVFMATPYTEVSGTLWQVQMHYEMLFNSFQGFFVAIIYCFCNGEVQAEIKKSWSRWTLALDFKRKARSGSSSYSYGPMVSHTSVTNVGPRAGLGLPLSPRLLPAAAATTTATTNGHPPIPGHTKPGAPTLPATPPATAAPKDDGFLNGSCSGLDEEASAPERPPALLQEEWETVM
Procedure: (§1) Receptor binding assays were carried out in canine renal plasma membranes and in UMR 106-H5 rat osteosarcoma cells as previously described in detail (Ref. 14,32), using ^125 I-labeled PTH(1-34)amide as the radioligand. Binding potency (IC50) was quantified as the concentration of unlabeled peptide required for half-maximal displacement of the radioligand. […] Adenylate cyclase activity was assessed in canine renal membranes by the conversion of [α-32p ] ATP to [^32 P] cyclic AMP, essentially as described, except for the addition of 100 micromolar GTP (Ref. 33,34). Adenylate cyclase activity in UMR 106-H5 cells was assessed essentially as described (Ref. 35). In brief, cells were incubated with [3H]adenine 1 micro Ci/ml of serum-free MEM for two hours at 37° C. to label the endogenous ATP pool. Cells were then exposed to 0.4 mM IBMX for 10 min, followed by the appropriate peptide for an additional 10 min at ambient temperature. The cells are then scraped in 20% TCA, and [3H]cyclic AMP is isolated by the column procedure of Salomon et al. (Ref. 36). Potency in the adenylate cyclase assays (Ka) is the concentration of peptide producing half-maximal enzyme activation.

PTH receptor [2] = target: T1, PTH receptor; assay type: biochemical, canine
Procedure: as §1

PTH receptor [3] = target: T2, PTH receptor (Rattus norvegicus, UniProt P25961); assay type: binding
T2 construct: endogenous in cells; host or cells: UMR 106-H5 rat osteosarcoma cells
T2 sequence (P25961 27-591): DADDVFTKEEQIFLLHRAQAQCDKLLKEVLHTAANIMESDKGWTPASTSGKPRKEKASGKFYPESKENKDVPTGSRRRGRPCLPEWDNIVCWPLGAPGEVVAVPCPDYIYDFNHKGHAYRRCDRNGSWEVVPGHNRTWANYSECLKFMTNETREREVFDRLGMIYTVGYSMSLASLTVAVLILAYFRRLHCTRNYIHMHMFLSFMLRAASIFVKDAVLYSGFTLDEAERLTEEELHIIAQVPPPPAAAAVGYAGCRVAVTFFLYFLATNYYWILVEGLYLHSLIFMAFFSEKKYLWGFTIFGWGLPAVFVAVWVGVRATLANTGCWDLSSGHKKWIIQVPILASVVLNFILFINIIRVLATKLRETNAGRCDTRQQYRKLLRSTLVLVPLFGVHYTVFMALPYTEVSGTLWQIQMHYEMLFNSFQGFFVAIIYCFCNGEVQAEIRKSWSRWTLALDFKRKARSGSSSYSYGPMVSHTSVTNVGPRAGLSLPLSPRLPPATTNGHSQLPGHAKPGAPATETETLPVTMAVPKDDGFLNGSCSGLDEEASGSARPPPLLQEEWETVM
Procedure: as §1

PTH receptor [4] = target: T2, PTH receptor; assay type: cell-based
Procedure: as §1, with “Assays were conducted using […] cells. These assays were performed as described in Cohen et al. (1991), J. Biological Chem., 266(3), 1997 and in the Experimental section, e.g. Example 11. Receptor” for “Receptor”

PTH receptor [5] = test system: PTH receptor
PTH receptor [6] = target: T3, PTH receptor (Homo sapiens, UniProt Q03431)
T3 sequence (Q03431 27-593): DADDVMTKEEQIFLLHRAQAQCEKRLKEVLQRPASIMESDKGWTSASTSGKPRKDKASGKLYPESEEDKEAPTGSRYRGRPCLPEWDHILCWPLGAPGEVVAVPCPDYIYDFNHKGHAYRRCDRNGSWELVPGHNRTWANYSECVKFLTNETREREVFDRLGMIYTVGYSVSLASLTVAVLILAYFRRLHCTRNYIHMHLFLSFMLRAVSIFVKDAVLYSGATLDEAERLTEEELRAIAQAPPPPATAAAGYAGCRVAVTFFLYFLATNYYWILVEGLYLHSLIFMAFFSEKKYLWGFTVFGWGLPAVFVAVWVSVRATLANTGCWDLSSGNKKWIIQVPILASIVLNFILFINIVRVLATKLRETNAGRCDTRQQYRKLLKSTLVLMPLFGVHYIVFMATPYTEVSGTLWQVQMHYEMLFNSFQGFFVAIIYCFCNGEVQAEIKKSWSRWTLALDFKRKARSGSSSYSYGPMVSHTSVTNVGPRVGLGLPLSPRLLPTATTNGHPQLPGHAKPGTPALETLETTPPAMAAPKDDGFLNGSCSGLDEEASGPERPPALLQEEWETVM

PTH receptor [7] = target: T3, PTH receptor; remark: listed apart in the source
PTH receptor [8] = target: T3, PTH receptor; assay type: cell-based; design: In intact rat (UMR-106) and human (SaOS-2) bone cell lines; endogenous in cells; host or cells: SaOS-2 human bone (osteosarcoma) cells
From the text: The renal membrane assay values listed reflect the effect of the polypeptide analogue with kidney tissue receptors. The UMR-106-H5 assay values reflect the effect of the peptide analogue with rat bone tissue receptors. The Sa05-2 assay values reflect the effect of the peptides for human bone tissue receptors.

[9] = aqueous conditions in the absence of amphiphiles (Ref. 37-39); cited from earlier work
[10] = Table 5A, intact cells, hPTH(1-34) = 100

| Compound | RENAL MEMBRANES Canine Potency (B) (PTH receptor [1]) [%] | RENAL MEMBRANES Canine Potency (AC) (PTH receptor [2]) [%] | RENAL MEMBRANES Canine Activity (AC) (PTH receptor [2]; Table 5B, hPTH(1-34) = 100) [%] | BONE CELLS Rat(UMR-106) Potency (B) (PTH receptor [3]) [%] | BONE CELLS Rat(UMR-106) Potency (AC) (PTH receptor [4]) [%] | BONE CELLS Rat(UMR-106) Activity (AC) (PTH receptor [4]; [10]) [%] | KIDNEY CELLS (CK) Potency (B) (PTH receptors) [%] | potency of native [ser^3]HPTH(1-34) retained in binding to PTH receptors (PTH receptors) | KIDNEY CELLS (CK) Potency (AC) (PTH receptor [5]) [%] | BONE CELL MEMBRANES Human SaOS-2 Potency (AC) (PTH receptor [6]) [%] | BONE CELL MEMBRANES Human SaOS-2 Activity (AC) (PTH receptor [6]; Table 5B, hPTH(1-34) = 100) [%] | RENAL MEMBRANES Human Potency (AC) (PTH receptor [7]) [%] | RENAL MEMBRANES Human Activity (AC) (PTH receptor [7]; Table 5B, hPTH(1-34) = 100) [%] | BONE CELLS Human(SaOS-2) Potency (AC) (PTH receptor [8]) [%] | BONE CELLS Human(SaOS-2) Activity (AC) (PTH receptor [8]; [10]) [%] | alpha-helical residues, previous estimates [9] [residues] |
| --- | --- | --- | --- | --- | --- | --- | --- | --- | --- | --- | --- | --- | --- | --- | --- | --- |
| CC[C@H](C)[C@H](NC(=O)[C@H](CCC(=O)O)NC(=O)[C@H](CC(C)C)NC(=O)[C@@H](NC(=O)[C@@H](N)CO)C(C)C)C(=O)N[C@@H](CCC(N)=O)C(=O)N[C@@H](CC(C)C)C(=O)N[C@@H](CCSC)C(=O)N[C@@H](Cc1c[nH]cn1)C(=O)N[C@@H](CC(N)=O)C(=O)N[C@@H](CC(C)C)C(=O)NCC(=O)N[C@@H](CCCCN)C(=O)N[C@@H](Cc1c[nH]cn1)C(=O)N[C@@H](CC(C)C)C(=O)N[C@@H](CC(N)=O)C(=O)N[C@@H](CO)C(=O)N[C@@H](CCSC)C(=O)N[C@@H](CCC(=O)O)C(=O)N[C@@H](CCCNC(=N)N)C(=O)N[C@H](C(=O)N[C@@H](CCC(=O)O)C(=O)N[C@@H](Cc1c[nH]c2ccccc12)C(=O)N[C@@H](CC(C)C)C(=O)N[C@@H](CCCNC(=N)N)C(=O)N[C@@H](CCCCN)C(=O)N[C@@H](CCCCN)C(=O)N[C@@H](CC(C)C)C(=O)N[C@@H](CCC(N)=O)C(=O)N[C@@H](CC(=O)O)C(=O)N[C@H](C(=O)N[C@@H](Cc1c[nH]cn1)C(=O)N[C@@H](CC(N)=O)C(=O)N[C@@H](Cc1ccccc1)C(=O)O)C(C)C)C(C)C [[leu^3]hPTH(1-34), [leu^3] HPTH(1-34)] | 7 | 1 | 47 | 6 | 13 | 100 | 22 | 5-15% | 16 | 8 | 14 | 3 | 35 | 11 | 86 |  |
| bPTH(7-34) (FMHNLGKHLSSMERVEWLRKKLQDVHNF; Parathyroid hormone; UniProt P01268 38-65, looked up, fragment) |  |  |  |  |  |  |  |  |  |  |  |  |  |  |  | 9 |
